From PMC4843002, “Identification of pyrazolopyridazinones as PDEδ inhibitors” (Nature Communications, 2016)

The compounds below were run against PDEδ (Homo sapiens, UniProt O43924) (assay: competitive fluorescence polarization displacement assay).
Type: binding
Method: The Kd values were determined by the fluorescence polarization competition-binding assay, which we developed before.

Row | Compound | Kd
1 | COc1ccc(CNC(=O)CCCn2nc(C)c3c(C)n(-c4ccccc4)nc3c2=O)cc1 [2d] | 0.081 ± 0.021 µM
2 | Cc1c(Cl)cccc1NC(=O)CCCn1nc(C)c2c(C)n(-c3ccccc3)nc2c1=O [2a] | 0.005 ± 0.002 µM
3 | Cc1ccc(-n2nc3c(=O)n(CCCC(=O)NCc4ccccc4)nc(C)c3c2C)cc1 [2h] | 0.017 ± 0.009 µM
4 | Cc1nn(CCCC(=O)NCc2ccccc2)c(=O)c2nn(-c3ccccc3)c(C)c12 [2c] | 0.042 ± 0.015 µM
5 | Cc1ccc(CNC(=O)CCCn2nc(C)c3c(C)n(-c4ccccc4)nc3c2=O)cc1 [2e] | 0.096 ± 0.014 µM
6 | Cc1ccc(-n2nc3c(=O)n(CCCC(=O)NCCc4ccccc4)nc(C)c3c2C)cc1 [2i] | 0.006 ± 0.002 µM
7 | Cc1nn(CCCC(=O)NCCc2ccccc2)c(=O)c2nn(-c3ccccc3)c(C)c12 [2f] | 0.029 ± 0.007 µM
8 | Cc1nn(CCCC(=O)NCc2ccco2)c(=O)c2nn(-c3ccccc3)c(C)c12 [2b] | 0.136 ± 0.055 µM
9 | Cc1ccc(CCNC(=O)CCCn2nc(C)c3c(C)n(-c4ccc(C)cc4)nc3c2=O)cc1 [2j] | 0.005 ± 0.003 µM
10 | Cc1ccc(-n2nc3c(=O)n(CCCC(=O)NCc4ccco4)nc(C)c3c2C)cc1 [2g] | 0.05 ± 0.016 µM
